The text below walks through data of patent US10144736B2 (Gilead Sciences, Inc., priority 2006, dated 2018).

In general, CC50 refers to the concentration at which the toxic effect on the cells reaches its halfway point. Read a low CC50 as harm at low concentration. As a reminder, the EC50 is the concentration giving half of the maximal effect.

Where two headings read alike, the source gives them in different places. A value given as a limit tells only on which side of the number the result lay.

The nature of data set [1]: CC50 assay (CellTiter-Glo) in Huh-7 HCV replicon cells. The settings on record: human, 3 days incubation, 50% cytostatic concentration. It counts as cell-based, human. Here is the method:
(§1) The anti HCV activity of specifically substituted pteridine derivatives was tested in a human hepatoma Huh-7 cell line harbouring a HCV replicon. The assay comprised the following steps:
(§2) Step 1: compound preparation and serial dilution involved the following alternatives, depending upon the water solubility of pteridine derivative being tested:
(§3) • 1. with respect to water soluble pteridine derivatives, 500 μL of solution in cell media (DMEM, 10% FBS, P/S, L-Glutamine) was prepared with a concentration that is twice the concentration of the starting final serial dilution concentration. 150 μL of the solution was added to the pre-specified wells in column 1 of a 96-well cell culture plate (PerkinElmer, white plate, cat. #6005181, for EC50 assay; black plate, cat. #6005182 for CC50 assay). The rest of the plate, i.e. columns 2-12, was filled with 100 μL of cell media. The plate was then placed on a Precision 2000 Workstation in order to start serial dilution. Pteridine compounds were diluted three times each step from column 1 to column 10. Column 11 was used as a blank control (no pteridine compound added). • 2. With respect to poorly water soluble pteridine derivatives, DMSO was used as a solvent, and serial dilution was performed in 50% DMSO in water, in a 384-well plate. A solution containing the relevant compound at 100-fold the concentration of the starting final serial dilution concentration was prepared in 50% DMSO in water and added to the pre-specified wells in column 1 of a polypropylene 384-well plate. This plate was then placed on a Precision 2000 Workstation in order to start serial dilution. After serial dilution, 2 μL of the solution was transferred from the 384-well plate to a 96-well cell culture plate containing 100 μL of cell media on a Biomek FX Workstation. The DMSO concentration in the final assay condition was 0.5% after cells have been added to the plate and the total volume in each well was brought to 200 μL. Step 2: to each well of the serial dilution plate prepared in step 1, 100 μL of cell media containing 6000 suspended Huh-7 HCV replicon cells was added with a Multidrop workstation. Plates were incubated for 3 days at 37° C. with 5% CO2. Step 3: detection: • 1) with respect to the EC50 assay, the media in a 96-well cell culture plate was aspirated with a Biotek EL405 plate-washer. A volume of 200 μL of a solution containing a 1:1 mixture of a cell-lysis buffer (commercially available from Promega, Luciferase Cell Culture Lysis 5X Reagent, cat. #E1531) and a luciferase substrate solution (commercially available from Promega, Luciferase Assay, cat. #E4550) was added to each well of the plate with Multidrop. The plate was incubated for 30 minutes at room temperature before the luminescence signal was measured with a TopCount plate-reader. • 2) with respect to the CC50 assay, 100 μL of a pre-mixed CellTiter-Glo (commercially available from Promega, cat. #G7572) solution was added directly to the cell culture in each well of the plate and the luminescence signal was measured with a TopCount plate-reader after 10 minutes of incubation at room temperature.
(§4) Results are expressed by the following data: • the 50% effective concentration (EC50), i.e. the concentration that protects 50% of the cell monolayer from virus-induced cythopathic effect. • the 50% cytostatic concentration (CC50), i.e. the concentration that results in 50% inhibition of cell growth.
(In general: ATP-based viability assays read luminescence as a measure of living cells.)

The test system of the next data set is HCV replicon. In words: Anti-HCV replicon assay (EC50, luciferase readout). It counts as cell-based, hepatitis C virus. The settings on record: human hepatoma Huh-7 cell line harbouring a HCV replicon, 3 days incubation, luciferase signal. Here is the method: as §1, §2, §3, §4
Setting [2] is: Hepatitis C virus, 72 h, read-out: EC50.

`CCOc1nc(N)nc2ncc(-c3ccc(OC)c(F)c3)nc12` [Example 3, 4-ethoxy-6-(3-fluoro-4-methoxyphenyl)pteridin-2-ylamine]: the CC50 at 3 days in data set [1] is more than 20000 nM. Further, the 50% effective concentration (EC50) with HCV replicon (setting [2]) lay in the range of 1000 to 10000 nM.

Take `CCOc1nc(N)nc2ncc(-c3ccc(Cl)cc3)nc12` [Example 27, 6-(4-chlorophenyl)-4-ethoxypteridin-2-ylamine]: in data set [1], the CC50 at 3 days is less than 10000 nM. The compound further returned a concentration for a half-maximal effect (EC50) with HCV replicon (Hepatitis C virus, Huh-7, 72 h) of 300 to 1000 nM.

As for `CCOc1nc(N)nc2ncc(-c3ccc(S(C)(=O)=O)cc3)nc12` [Example 30, 4-ethoxy-6-(4-(methylsulfonyl)phenyl)pteridin-2-ylamine], the CC50 at 3 days in data set [1] is more than 20000 nM. Further, the half-maximal effective concentration (EC50) in the data set with HCV replicon (setting [2]) was 1000 to 10000 nM.

In data set [1], `CCOc1nc(N)nc2ncc(-c3ccncc3)nc12` [Example 31, 4-ethoxy-6-(pyridin-4-yl)pteridin-2-ylamine] showed a CC50 at 3 days of less than 10000 nM. Also, the EC50 in the data set on HCV replicon (setting [2]) lay within 300 to 1000 nM.

In turn, `CCOc1nc(N)nc2ncc(-c3ccc(C)cc3)nc12` [Example 54, 4-ethoxy-6-p-tolylpteridin-2-ylamine] registered a CC50 at 3 days in data set [1] of more than 20000 nM. Moreover, in the data set with HCV replicon (setting [2]), the EC50 was 1000 to 10000 nM.

Regarding `CCOc1nc(N)nc2ncc(-c3ccc(O)cc3)nc12` [Example 57, 4-(2-amino-4-ethoxypteridin-6-yl)phenol], in data set [1], the CC50 at 3 days was more than 20000 nM. In the data set on HCV replicon (Hepatitis C virus, Huh-7, 72 h), the EC50 was in the range of 1000 to 10000 nM.

Take `CCOc1nc(N)nc2ncc(-c3ccc(N)cc3)nc12` [Example 69, 6-(4-aminophenyl)-4-ethoxypteridin-2-ylamine]: the cytotoxic concentration (CC50) at 3 days in data set [1] is more than 20000 nM. In the data set on HCV replicon (Hepatitis C virus, Huh-7, 72 h), this compound returned a concentration for a half-maximal effect (EC50) of 1000 to 10000 nM.

`Nc1nc(N2CCOCC2)c2nc(-c3ccccc3Cl)cnc2n1` [Example 78, 6-(2-chlorophenyl)-4-morpholinopteridin-2-ylamine]: the CC50 at 3 days in data set [1] is less than 10000 nM. Also, the EC50 in the data set on HCV replicon (Hepatitis C virus, Huh-7, 72 h) lay within 300 to 1000 nM.

`Nc1nc(N2CCOCC2)c2nc(-c3ccccc3C(F)(F)F)cnc2n1` [Example 79, 4-morpholino-6-(2-(trifluoromethyl)phenyl)pteridin-2-ylamine]: the CC50 at 3 days in data set [1] is less than 10000 nM. Also, the EC50 in the data set on HCV replicon (setting [2]) fell in the range of 300 to 1000 nM.

In the case of `COc1ccccc1-c1cnc2nc(N)nc(N3CCOCC3)c2n1` [Example 80, 6-(2-methoxyphenyl)-4-morpholinopteridin-2-ylamine], in data set [1], the CC50 at 3 days is more than 20000 nM. The EC50 in the data set on HCV replicon (setting [2]) lay within 300 to 1000 nM.

In data set [1], `Nc1nc(N2CCOCC2)c2nc(-c3cccc(Cl)c3)cnc2n1` [Example 82, 6-(3-chlorophenyl)-4-morpholinopteridin-2-ylamine] returned a CC50 at 3 days of more than 20000 nM. In the data set on HCV replicon (Hepatitis C virus, Huh-7, 72 h), this compound came in with an EC50 of 300 to 1000 nM.

In data set [1], `Nc1nc(N2CCOCC2)c2nc(-c3cccc(OC(F)(F)F)c3)cnc2n1` [Example 84, 4-morpholino-6-(3-(trifluoromethoxy)phenyl)-pteridin-2-ylamine] yielded a CC50 at 3 days of less than 10000 nM. For the same compound, in the data set with HCV replicon (setting [2]), the EC50 is less than 300 nM.

As to `N#Cc1cccc(-c2cnc3nc(N)nc(N4CCOCC4)c3n2)c1` [Example 85, 3-(2-amino-4-morpholinopteridin-6-yl)benzonitrile], the CC50 at 3 days in data set [1] was more than 20000 nM. In the data set on HCV replicon (setting [2]), the EC50 lay within 1000 to 10000 nM.

In data set [1], `Nc1nc(N2CCOCC2)c2nc(-c3ccc(CN4CCOCC4)cc3)cnc2n1` [Example 89, 4-morpholino-6-(4-(morpholino-methyl)phenyl)pteridin-2-ylamine] displayed a CC50 at 3 days of more than 20000 nM. The half-maximal effective concentration (EC50) in the data set with HCV replicon (setting [2]) was in the range of 1000 to 10000 nM.

`Nc1nc(N2CCOCC2)c2nc(-c3cccc(F)c3F)cnc2n1` [Example 90, 6-(2,3-difluorophenyl)-4-morpholinopteridin-2-ylamine] had a CC50 at 3 days in data set [1] of more than 20000 nM. In the data set with HCV replicon, this compound registered an EC50 of 300 to 1000 nM.

For `Nc1nc(N2CCOCC2)c2nc(-c3cccc(Cl)c3Cl)cnc2n1` [Example 91, 6-(2,3-dichlorophenyl)-4-morpholinopteridin-2-amine], the CC50 at 3 days in data set [1] was more than 20000 nM. In the data set with HCV replicon (Hepatitis C virus, Huh-7, 72 h), this compound yielded an EC50 of 300 to 1000 nM.

`Nc1nc(N2CCOCC2)c2nc(-c3ccc(F)cc3Cl)cnc2n1` [Example 92, 6-(2-chloro-4-fluorophenyl)-4-morpholinopteridin-2-ylamine] yielded a 50% cytotoxic concentration (CC50) at 3 days in data set [1] of 10000 to 20000 nM. This compound also gave a concentration for a half-maximal effect (EC50) with HCV replicon (Hepatitis C virus, Huh-7, 72 h) of 300 to 1000 nM.
